From PMC5290327, “SC83288 is a clinical development candidate for the treatment of severe malaria” (Nature Communications, 2017)

How the values were obtained:
Assay in all cases: KINOMEscan
Type in all cases: binding
Conditions in all cases: read-out: Remaining enzyme activity
DRAK2 = target: T1, DRAK2 (Homo sapiens, UniProt O94768)
T1 construct: purchased Ambit (DiscoverX) KINOMEscan; Cerep
Description: (§1) The KINOMEscan was carried out by Ambit (San Diego, USA) according to a previously established protocol. The experiment was based on a competition binding assay that quantitatively measures the ability of a compound to compete with an immobilized, active-site directed ligand. The assay is performed by combining three components: DNA-tagged kinase; immobilized ligand; and a test compound. The ability of the test compound to compete with the immobilized ligand is measured via quantitative PCR of the DNA tag.
(§2) For most assays, kinase-tagged T7 phage strains were grown in parallel in 24-well blocks in an Escherichia coli host derived from the BL21 strain. E. coli were grown to log-phase and infected with T7 phage from a frozen stock and incubated with shaking at 32 °C until lysis (90–150 min). The lysates were centrifuged (6,000g) and filtered (0.2 μm) to remove cell debris. The remaining kinases were produced in HEK-293 cells (Sigma Aldrich, catalogue number: 85120602) and subsequently tagged with DNA for quantitative PCR detection. […] The liganded beads were blocked with excess biotin and washed with blocking buffer (SeaBlock (Pierce), 1% bovine serum albumin, 0.05% Tween 20 and 1 mM dithiothreitol) to remove unbound ligand and to reduce non-specific phage binding. […] SC81458 was prepared as 40x stock in 100% DMSO and directly diluted into the assay to a final concentration of 10 μM. All reactions were performed in polypropylene 384-well plates in a final volume of 0.04 ml. […] The kinase concentration in the eluates was measured by quantitative PCR.

BRK = target: T2, BRK (Homo sapiens, UniProt Q13882)
T2 construct: purchased Ambit (DiscoverX) KINOMEscan; Cerep
Description: as §1, §2

CDC2L2 = target: T3, CDC2L2 (Homo sapiens, UniProt Q9UQ88)
T3 construct: purchased Ambit (DiscoverX) KINOMEscan; Cerep
Description: as §1, §2

MEK6 = target: T4, MEK6 (Homo sapiens, UniProt P52564)
T4 construct: purchased Ambit (DiscoverX) KINOMEscan; Cerep
Description: as §1, §2

MRCKA = target: T5, MRCKA (Homo sapiens, UniProt Q5VT25)
T5 construct: purchased Ambit (DiscoverX) KINOMEscan; Cerep
Description: as §1, §2

PLK3 = target: T6, PLK3 (Homo sapiens, UniProt Q9H4B4)
T6 construct: purchased Ambit (DiscoverX) KINOMEscan; Cerep
Description: as §1, §2

TRKb = target: T7, TRKb (Homo sapiens, UniProt Q16620)
T7 construct: purchased Ambit (DiscoverX) KINOMEscan; Cerep
Description: as §1, §2

CLK3 = target: T8, CLK3 (Homo sapiens, UniProt P49761)
T8 construct: purchased Ambit (DiscoverX) KINOMEscan; Cerep
Description: as §1, §2

NEK6 = target: T9, NEK6 (Homo sapiens, UniProt Q9HC98)
T9 construct: purchased Ambit (DiscoverX) KINOMEscan; Cerep
Description: as §1, §2

RIPK1 = target: T10, RIPK1 (Homo sapiens, UniProt Q13546)
T10 construct: purchased Ambit (DiscoverX) KINOMEscan; Cerep
Description: as §1, §2

ABL1(E255K) = target: T11, ABL1(E255K) (Homo sapiens, UniProt P00519, E255K)
T11 construct: purchased Ambit (DiscoverX) KINOMEscan; Cerep
Description: as §1, §2

TGFBR2 = target: T12, TGFBR2 (Homo sapiens, UniProt P37173)
T12 construct: purchased Ambit (DiscoverX) KINOMEscan; Cerep
Description: as §1, §2

AKT1 = target: T13, AKT1 (Homo sapiens, UniProt P31749)
T13 construct: purchased Ambit (DiscoverX) KINOMEscan; Cerep
Description: as §1, §2

TAO1 = target: T14, TAO1 (Homo sapiens, UniProt Q9UL54)
T14 construct: purchased Ambit (DiscoverX) KINOMEscan; Cerep
Description: as §1, §2

PFTAIRE2 = target: T15, PFTAIRE2 (Homo sapiens, UniProt Q96Q40)
T15 construct: purchased Ambit (DiscoverX) KINOMEscan; Cerep
Description: as §1, §2

EGFR(L858R) = target: T16, EGFR(L858R) (Homo sapiens, UniProt P00533, L858R)
T16 construct: purchased Ambit (DiscoverX) KINOMEscan; Cerep
Description: as §1, §2

DRAK1 = target: T17, DRAK1 (Homo sapiens, UniProt Q9UEE5)
T17 construct: purchased Ambit (DiscoverX) KINOMEscan; Cerep
Description: as §1, §2

PCTk3 = target: T18, PCTk3 (Homo sapiens, UniProt Q07002)
T18 construct: purchased Ambit (DiscoverX) KINOMEscan; Cerep
Description: as §1, §2

TAOK1 = target: T19, TAOK1 (Homo sapiens, UniProt Q7L7X3)
T19 construct: purchased Ambit (DiscoverX) KINOMEscan; Cerep
Description: as §1, §2

EPHA5 = target: T20, EPHA5 (Homo sapiens, UniProt P54756)
T20 construct: purchased Ambit (DiscoverX) KINOMEscan; Cerep
Description: as §1, §2

TYK2(JHdomain-catalytic) = target: T21, TYK2(JHdomain-catalytic) (Homo sapiens, UniProt P29597)
T21 construct: TYK2(JHdomain-catalytic); purchased Ambit (DiscoverX) KINOMEscan; Cerep
Description: as §1, §2

MARK4 = target: T22, MARK4 (Homo sapiens, UniProt Q96L34)
T22 construct: purchased Ambit (DiscoverX) KINOMEscan; Cerep
Description: as §1, §2

MERTK = target: T23, MERTK (Homo sapiens, UniProt Q12866)
T23 construct: purchased Ambit (DiscoverX) KINOMEscan; Cerep
Description: as §1, §2

HIPK4 = target: T24, HIPK4 (Homo sapiens, UniProt Q8NE63)
T24 construct: purchased Ambit (DiscoverX) KINOMEscan; Cerep
Description: as §1, §2

TNIK = target: T25, TNIK (Homo sapiens, UniProt Q9UKE5)
T25 construct: purchased Ambit (DiscoverX) KINOMEscan; Cerep
Description: as §1, §2

IRAK1 = target: T26, IRAK1 (Homo sapiens, UniProt P51617)
T26 construct: purchased Ambit (DiscoverX) KINOMEscan; Cerep
Description: as §1, §2

ERK4 = target: T27, ERK4 (Homo sapiens, UniProt P31152)
T27 construct: purchased Ambit (DiscoverX) KINOMEscan; Cerep
Description: as §1, §2

CSNK1d = target: T28, CSNK1d (Homo sapiens, UniProt P48730)
T28 construct: purchased Ambit (DiscoverX) KINOMEscan; Cerep
Description: as §1, §2

PHKG2 = target: T29, PHKG2 (Homo sapiens, UniProt P15735)
T29 construct: purchased Ambit (DiscoverX) KINOMEscan; Cerep
Description: as §1, §2

LTK = target: T30, LTK (Homo sapiens, UniProt P29376)
T30 construct: purchased Ambit (DiscoverX) KINOMEscan; Cerep
Description: as §1, §2

MLK1 = target: T31, MLK1 (Homo sapiens, UniProt P80192)
T31 construct: purchased Ambit (DiscoverX) KINOMEscan; Cerep
Description: as §1, §2

BRAF = target: T32, BRAF (Homo sapiens, UniProt P15056)
T32 construct: purchased Ambit (DiscoverX) KINOMEscan; Cerep
Description: as §1, §2

[1] = target: T33, EGFR(L747-E749del, A750P) (Homo sapiens, UniProt P00533, A750P/DEL747-749)
T33 construct: purchased Ambit (DiscoverX) KINOMEscan; Cerep
Description: as §1, §2

T4 sequence (P52564 whole entry): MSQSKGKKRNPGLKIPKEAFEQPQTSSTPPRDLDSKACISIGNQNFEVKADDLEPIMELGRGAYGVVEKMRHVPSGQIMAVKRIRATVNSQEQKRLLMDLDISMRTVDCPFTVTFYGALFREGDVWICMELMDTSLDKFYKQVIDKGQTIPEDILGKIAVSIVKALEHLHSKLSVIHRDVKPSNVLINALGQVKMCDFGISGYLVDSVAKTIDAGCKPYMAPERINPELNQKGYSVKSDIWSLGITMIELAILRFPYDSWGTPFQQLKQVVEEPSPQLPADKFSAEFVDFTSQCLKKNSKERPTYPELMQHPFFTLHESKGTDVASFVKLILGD
T8 sequence (P49761 whole entry): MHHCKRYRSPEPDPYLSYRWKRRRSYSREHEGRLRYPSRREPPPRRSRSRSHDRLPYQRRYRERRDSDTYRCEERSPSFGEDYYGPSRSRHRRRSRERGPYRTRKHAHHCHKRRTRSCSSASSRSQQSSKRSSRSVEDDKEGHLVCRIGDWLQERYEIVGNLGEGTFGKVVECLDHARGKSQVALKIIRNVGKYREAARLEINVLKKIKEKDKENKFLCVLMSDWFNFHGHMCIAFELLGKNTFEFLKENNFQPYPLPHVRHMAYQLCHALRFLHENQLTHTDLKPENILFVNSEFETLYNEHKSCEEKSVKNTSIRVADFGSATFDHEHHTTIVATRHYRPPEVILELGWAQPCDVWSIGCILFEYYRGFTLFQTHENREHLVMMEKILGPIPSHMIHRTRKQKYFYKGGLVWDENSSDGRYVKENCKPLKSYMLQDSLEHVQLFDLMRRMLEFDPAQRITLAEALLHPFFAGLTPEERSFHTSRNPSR
T1 sequence (O94768 whole entry): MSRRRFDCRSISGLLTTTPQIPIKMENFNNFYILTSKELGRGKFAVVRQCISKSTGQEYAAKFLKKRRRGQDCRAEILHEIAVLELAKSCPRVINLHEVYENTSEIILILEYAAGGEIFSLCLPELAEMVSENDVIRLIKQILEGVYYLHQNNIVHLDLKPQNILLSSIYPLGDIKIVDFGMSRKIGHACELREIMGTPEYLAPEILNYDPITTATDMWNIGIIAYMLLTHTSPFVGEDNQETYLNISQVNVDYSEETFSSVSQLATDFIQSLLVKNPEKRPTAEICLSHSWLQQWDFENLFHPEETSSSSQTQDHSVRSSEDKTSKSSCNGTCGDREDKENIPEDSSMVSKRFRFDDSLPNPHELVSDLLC
T19 sequence (Q7L7X3 whole entry): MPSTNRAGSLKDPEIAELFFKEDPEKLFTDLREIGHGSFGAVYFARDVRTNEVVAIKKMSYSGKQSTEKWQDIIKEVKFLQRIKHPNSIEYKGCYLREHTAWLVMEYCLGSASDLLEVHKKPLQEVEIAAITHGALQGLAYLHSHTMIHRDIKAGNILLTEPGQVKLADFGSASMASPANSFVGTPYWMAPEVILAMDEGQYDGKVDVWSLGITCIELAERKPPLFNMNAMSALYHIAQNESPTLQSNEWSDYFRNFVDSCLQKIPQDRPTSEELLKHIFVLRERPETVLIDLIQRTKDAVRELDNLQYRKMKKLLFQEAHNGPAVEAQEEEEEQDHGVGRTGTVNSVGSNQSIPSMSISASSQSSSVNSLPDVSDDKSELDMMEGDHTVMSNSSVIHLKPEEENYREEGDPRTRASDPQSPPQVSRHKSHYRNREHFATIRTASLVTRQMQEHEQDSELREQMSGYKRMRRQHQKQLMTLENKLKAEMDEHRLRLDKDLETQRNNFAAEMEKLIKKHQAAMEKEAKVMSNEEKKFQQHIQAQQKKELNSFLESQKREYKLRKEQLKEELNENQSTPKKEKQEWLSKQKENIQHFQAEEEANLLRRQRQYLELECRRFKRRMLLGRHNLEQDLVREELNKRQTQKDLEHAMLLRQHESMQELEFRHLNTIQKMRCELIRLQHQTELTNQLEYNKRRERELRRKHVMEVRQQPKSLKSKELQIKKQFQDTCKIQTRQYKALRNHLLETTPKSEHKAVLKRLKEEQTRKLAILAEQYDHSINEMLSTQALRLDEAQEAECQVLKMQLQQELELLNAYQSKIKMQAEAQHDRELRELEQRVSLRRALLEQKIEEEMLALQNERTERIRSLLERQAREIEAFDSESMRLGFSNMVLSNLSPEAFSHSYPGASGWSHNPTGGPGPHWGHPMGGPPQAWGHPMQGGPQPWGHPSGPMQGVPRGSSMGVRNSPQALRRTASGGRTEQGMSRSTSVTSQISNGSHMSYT
T3 sequence (Q9UQ88 whole entry): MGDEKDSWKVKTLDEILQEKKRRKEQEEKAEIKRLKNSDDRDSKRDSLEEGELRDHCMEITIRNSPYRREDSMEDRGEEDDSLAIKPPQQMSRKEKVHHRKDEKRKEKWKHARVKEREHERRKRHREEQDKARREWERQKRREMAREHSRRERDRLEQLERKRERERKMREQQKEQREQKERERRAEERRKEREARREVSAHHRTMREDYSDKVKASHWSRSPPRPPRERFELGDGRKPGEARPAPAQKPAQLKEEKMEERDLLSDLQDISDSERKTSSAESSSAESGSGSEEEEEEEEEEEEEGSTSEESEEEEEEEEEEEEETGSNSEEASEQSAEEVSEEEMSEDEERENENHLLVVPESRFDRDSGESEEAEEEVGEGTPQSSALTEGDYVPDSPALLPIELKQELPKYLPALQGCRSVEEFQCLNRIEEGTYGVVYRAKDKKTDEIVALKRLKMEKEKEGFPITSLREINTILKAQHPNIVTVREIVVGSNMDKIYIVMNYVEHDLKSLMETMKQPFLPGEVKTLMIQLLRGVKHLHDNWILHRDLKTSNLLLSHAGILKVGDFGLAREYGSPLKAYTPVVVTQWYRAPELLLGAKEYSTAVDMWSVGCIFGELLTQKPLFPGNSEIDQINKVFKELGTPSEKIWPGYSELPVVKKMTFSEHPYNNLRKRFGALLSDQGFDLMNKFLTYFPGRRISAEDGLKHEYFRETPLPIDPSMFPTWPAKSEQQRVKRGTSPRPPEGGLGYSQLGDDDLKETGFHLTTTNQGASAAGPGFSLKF
T28 sequence (P48730 whole entry): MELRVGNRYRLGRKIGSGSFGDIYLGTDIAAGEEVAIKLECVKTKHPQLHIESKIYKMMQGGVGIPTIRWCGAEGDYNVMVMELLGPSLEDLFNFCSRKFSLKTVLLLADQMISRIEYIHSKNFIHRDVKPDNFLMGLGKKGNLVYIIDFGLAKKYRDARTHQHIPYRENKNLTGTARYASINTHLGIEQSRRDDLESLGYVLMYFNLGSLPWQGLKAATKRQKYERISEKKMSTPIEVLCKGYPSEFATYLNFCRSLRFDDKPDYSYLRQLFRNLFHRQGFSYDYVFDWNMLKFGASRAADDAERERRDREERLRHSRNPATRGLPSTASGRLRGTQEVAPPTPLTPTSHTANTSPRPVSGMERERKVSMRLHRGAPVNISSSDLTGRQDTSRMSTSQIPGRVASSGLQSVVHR
T18 sequence (Q07002 whole entry): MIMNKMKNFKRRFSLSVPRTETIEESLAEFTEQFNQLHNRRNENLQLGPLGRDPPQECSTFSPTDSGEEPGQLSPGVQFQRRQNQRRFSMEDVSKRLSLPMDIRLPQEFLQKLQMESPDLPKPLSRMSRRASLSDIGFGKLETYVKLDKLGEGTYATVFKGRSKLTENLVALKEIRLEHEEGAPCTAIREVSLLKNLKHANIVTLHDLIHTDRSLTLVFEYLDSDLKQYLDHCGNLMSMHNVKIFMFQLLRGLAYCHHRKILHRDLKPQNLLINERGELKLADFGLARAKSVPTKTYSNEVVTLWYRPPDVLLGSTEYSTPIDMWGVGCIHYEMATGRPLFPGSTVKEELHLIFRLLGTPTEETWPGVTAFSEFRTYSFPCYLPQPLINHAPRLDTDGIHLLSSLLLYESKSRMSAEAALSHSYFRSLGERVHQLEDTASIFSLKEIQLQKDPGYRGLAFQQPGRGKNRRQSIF
T11 sequence (P00519 whole entry E255K): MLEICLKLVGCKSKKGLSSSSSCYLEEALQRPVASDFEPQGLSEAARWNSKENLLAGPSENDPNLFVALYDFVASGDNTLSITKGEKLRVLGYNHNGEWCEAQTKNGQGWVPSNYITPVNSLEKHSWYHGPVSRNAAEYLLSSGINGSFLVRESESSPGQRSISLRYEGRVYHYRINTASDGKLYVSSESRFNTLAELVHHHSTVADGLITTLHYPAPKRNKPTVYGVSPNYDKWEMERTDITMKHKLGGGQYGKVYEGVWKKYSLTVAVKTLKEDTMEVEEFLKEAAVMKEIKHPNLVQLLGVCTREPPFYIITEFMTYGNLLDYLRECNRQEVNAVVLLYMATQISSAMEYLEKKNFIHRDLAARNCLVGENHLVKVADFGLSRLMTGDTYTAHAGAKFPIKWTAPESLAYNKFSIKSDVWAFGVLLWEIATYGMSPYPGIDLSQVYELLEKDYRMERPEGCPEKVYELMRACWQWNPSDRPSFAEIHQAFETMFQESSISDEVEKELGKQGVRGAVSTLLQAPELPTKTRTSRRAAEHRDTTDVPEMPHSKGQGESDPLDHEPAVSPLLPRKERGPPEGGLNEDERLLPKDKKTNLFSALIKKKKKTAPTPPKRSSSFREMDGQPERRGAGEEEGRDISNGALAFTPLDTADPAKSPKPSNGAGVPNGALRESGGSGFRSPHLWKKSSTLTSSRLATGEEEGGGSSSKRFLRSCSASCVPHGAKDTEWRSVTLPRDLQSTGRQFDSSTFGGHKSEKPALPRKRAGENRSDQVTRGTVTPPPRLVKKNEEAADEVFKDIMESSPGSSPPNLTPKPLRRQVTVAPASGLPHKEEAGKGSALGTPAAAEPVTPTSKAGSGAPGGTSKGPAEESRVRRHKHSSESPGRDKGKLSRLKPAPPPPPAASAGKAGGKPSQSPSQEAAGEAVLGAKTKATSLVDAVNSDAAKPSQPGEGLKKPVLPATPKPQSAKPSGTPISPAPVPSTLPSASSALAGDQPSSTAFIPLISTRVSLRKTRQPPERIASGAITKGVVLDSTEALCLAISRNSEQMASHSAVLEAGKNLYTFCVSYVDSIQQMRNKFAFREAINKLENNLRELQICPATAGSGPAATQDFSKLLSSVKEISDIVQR

## CCCCN1CCN(C(=N)c2cccc(NC(=O)Nc3ccc(S(=O)(=O)NCc4ccc(S(N)(=O)=O)cc4)cc3)c2)CC1 [SC81458, 4-(3-(3-((4-butylpiperazin-1-yl)(imino)methyl)phenyl)ureido)-N-(4-sulfamoylbenzyl) benzenesulfonamide]
DRAK2
  remaining binding at 10 µM: 88%
BRK
  remaining binding at 10 µM: 100%
CDC2L2
  remaining binding at 10 µM: 100%
MEK6
  remaining binding at 10 µM: 81%
MRCKA
  remaining binding at 10 µM: 100%
PLK3
  remaining binding at 10 µM: 75%
TRKb
  remaining binding at 10 µM: 100%
CLK3
  remaining binding at 10 µM: 100%
NEK6
  remaining binding at 10 µM: 100%
RIPK1
  remaining binding at 10 µM: 100%
ABL1(E255K)
  remaining binding at 10 µM: 100%
TGFBR2
  remaining binding at 10 µM: 80%
AKT1
  remaining binding at 10 µM: 87%
TAO1
  remaining binding at 10 µM: 100%
PFTAIRE2
  remaining binding at 10 µM: 100%
EGFR(L858R)
  remaining binding at 10 µM: 92%
DRAK1
  remaining binding at 10 µM: 98%
PCTk3
  remaining binding at 10 µM: 98%
TAOK1
  remaining binding at 10 µM: 100%
EPHA5
  remaining binding at 10 µM: 100%
TYK2(JHdomain-catalytic)
  remaining binding at 10 µM: 76%
MARK4
  remaining binding at 10 µM: 100%
MERTK
  remaining binding at 10 µM: 100%
HIPK4
  remaining binding at 10 µM: 100%
TNIK
  remaining binding at 10 µM: 100%
IRAK1
  remaining binding at 10 µM: 95%
ERK4
  remaining binding at 10 µM: 100%
CSNK1d
  remaining binding at 10 µM: 100%
PHKG2
  remaining binding at 10 µM: 100%
LTK
  remaining binding at 10 µM: 100%
MLK1
  remaining binding at 10 µM: 64%
BRAF
  remaining binding at 10 µM: 95%
[1]
  remaining binding at 10 µM: 86%
